Assay results from US10799442B2, “Compounds useful in the treatment and/or care of the skin, hair, nails, and/or mucous membranes” (LUBRIZOL ADVANCED MATERIALS, INC., priority 2015, dated 2020).
[ ]: non-standard residue; d: D form. The star is where a group is joined. Palmitoyl = CCCCCCCCCCCCCCCC(=O)*; NHhexadecyl = CCCCCCCCCCCCCCCCN*; Myristoyl = CCCCCCCCCCCCCC(=O)*; Orn = NCCC[C@H](N)C(=O)O; NHHex = CCCCCCN*

System: human miRNA145
Assay: miRNA145 inhibition on Human Keratinocyte HaCaT cell line, direct quantification by luminescence
Assay type: cell-based
Settings: HaCaT cells, 0.3 mg/ml, 24 hours, normalized with Snord48; mean of 3 experiments for DD14024, one experiment for the others
Procedure: The synthetic peptide candidates are evaluated for the inhibition of human miRNA145 expression level using a direct miRNA145 quantification assay based on luminescence detection in a Human Keratinocyte HaCaT cell line.
HaCat cells (Deutsches Krebsforschungszentrum) are seeded at 3.0×10^4 cells/well in 96-clear wells plates and incubated in a culture medium [(DMEM High Glucose with L-Glutamine (Lonza), supplemented with 10% Fetal Bovine Serum (Cultek)] for 24 hours at 37° C. in a water-saturated atmosphere of 95% air and 5% CO2. Then, the cells with the candidates added at 0.3 mg/ml in the culture medium are treated for 24 hours at 37° C., 95% air and 5% CO2. Cells with culture medium only are treated to the same conditions to provide basal conditions. Each cell culture condition is assayed at least in 6 biological replicates. At the end of the incubation period, the cells are lysed and the relative miRNA145 expression level is quantified by a specific assay kit (QuantiGene™ 2.0 miRNA Assay Kit) following manufacturer's instructions (Affymetrix). Briefly, to capture miRNA145, culture lysates are incubated overnight at 46±1° C. in 96-white well plates with the miRNA145 specific probe set (Capture extenders and Label extenders). As an endogenous expression control, the housekeeping Snord48 is quantified using a specific probe set. Next day, the signal amplification tree is built via sequential hybridization at 46±1° C. of three probes: PreAmplifier, Amplifier and Alkaline Phosphatase Label Probe. Then, the signal is detected by adding a chemiluminescent substrate and using a Microplate Luminometer Reader (Clariostar-BMG LabTech).
The miRNA145 expression level result is normalized with the Snord48 expression level for each cell culture condition and the relative decrease in the miRNA145 expression level is calculated respect to basal control (cells treated with culture medium only). The values represent the mean of 3 independent experiments for DD14024, and for the other candidates, represent the result of one experiment.

“Ac-Glu-Glu-Ile-Arg-Met-Gln-NHC16H33 (Ac-EEIRMQ-NHhexadecyl; SMILES CCCCCCCCCCCCCCCCNC(=O)[C@H](CCC(N)=O)NC(=O)[C@H](CCSC)NC(=O)[C@H](CCCNC(=N)N)NC(=O)[C@@H](NC(=O)[C@H](CCC(=O)O)NC(=O)[C@H](CCC(=O)O)NC(C)=O)[C@@H](C)CC) [DD15023]” was tested, and the “Relative level of miRNA145 respect to basal control (%)” value (shortened to “Relative level … (%)”) was 74.48 ± 3.34%.
For “Ac-Asp-Glu-Met-Arg-Met-Gln-OH (Ac-DEMRMQ-OH) [DD15012]”, the “Relative level … (%)” value was 71.05 ± 3.82%.
With “Ac-Gln-Glu-Met-Arg-Met-Gln-NH2 (Ac-QEMRMQ-NH2) [DD14023]” the “Relative level … (%)” value was 87.03 ± 2.65%.
In the case of “Ac-Asp-Gln-Met-Arg-Met-Gln-OH (Ac-DQMRMQ-OH) [DD15053]”, the “Relative level … (%)” value is reported as 58.64 ± 0.04%.
With “Palm-Gln-Glu-Met-Arg-Met-Gln-OH (Palmitoyl-QEMRMQ-OH) [DD15003]” the “Relative level … (%)” value was 76.38 ± 7.00%.
For “Ac-Pro-Gln-Glu-Met-Arg-Met-Gln-OH (Ac-PQEMRMQ-OH) [DD15045]”, the “Relative level … (%)” value was 90.71 ± 4.78%.
With “Ac-Glu-Gln-Met-Arg-Met-Gln-OH (Ac-EQMRMQ-OH) [DD15054]” the “Relative level … (%)” value was 72.50 ± 2.88%.
In the case of “Palm-Gln-Glu-Leu-Arg-Met-Gln-OH (Palmitoyl-QELRMQ-OH; SMILES CCCCCCCCCCCCCCCC(=O)N[C@@H](CCC(N)=O)C(=O)N[C@@H](CCC(=O)O)C(=O)N[C@@H](CC(C)C)C(=O)N[C@@H](CCCNC(=N)N)C(=O)N[C@@H](CCSC)C(=O)N[C@@H](CCC(N)=O)C(=O)O) [DD15015]”, the “Relative level … (%)” value is reported as 14.07 ± 0.28%.
For Ac-QEM[Orn]MQ-OH [DD15022], the “Relative level … (%)” value was 75.41 ± 2.25%.
With “H-Gln-Glu-Met-Arg-Ile-Gln-NH2 (H-QEMRIQ-NH2) [DD15019]” the “Relative level … (%)” value was 67.00 ± 2.89%.
In the case of “Ac-Gln-Asp-Met-Arg-Met-Gln-NHC6H13 (Ac-QDMRMQ-NHHex; SMILES CCCCCCNC(=O)[C@H](CCC(N)=O)NC(=O)[C@H](CCSC)NC(=O)[C@H](CCCNC(=N)N)NC(=O)[C@H](CCSC)NC(=O)[C@H](CC(=O)O)NC(=O)[C@H](CCC(N)=O)NC(C)=O) [DD15013]”, the “Relative level … (%)” value is reported as 84.32 ± 6.96%.
In the case of “Ac-Gln-Glu-Met-Lys-Met-Gln-OH (Ac-QEMKMQ-OH) [DD15017]”, the “Relative level … (%)” value is reported as 85.50 ± 1.74%.
In the case of “Ac-Gln-Gln-Met-Arg-Met-Gln-OH (Ac-QQMRMQ-OH) [DD15014]”, the “Relative level … (%)” value is reported as 80.06 ± 3.47%.
“Ac-Gln-Glu-Met-Arg-Met-Glu-OH (Ac-QEMRME-OH) [DD15020]” was tested, and the “Relative level … (%)” value was 62.43 ± 0.89%.
With “Ac-Gln-Glu-Met-Arg-Met-Asn-OH (Ac-QEMRMN-OH) [DD15056]” the “Relative level … (%)” value was 72.43 ± 1.39%.
In the case of “Ac-Ser-Gln-Glu-Met-Arg-Met-Gln-Thr-NH2 (Ac-SQEMRMQT-NH2) [DD15050]”, the “Relative level … (%)” value is reported as 72.44 ± 3.87%.
With “Ac-Gln-Glu-Met-Arg-Met-Gln-Val-Tyr-OH (Ac-QEMRMQVY-OH) [DD15049]” the “Relative level … (%)” value was 80.09 ± 7.49%.
“H-Gln-Glu-Met-Arg-Met-Gln-OH (H-QEMRMQ-OH) [DD15002]” was tested, and the “Relative level … (%)” value was 89.75 ± 0.69%.
“Ac-Gln-Glu-Met-Arg-Met-Gln-Thr-NH2 (Ac-QEMRMQT-NH2) [DD15047]” was tested, and the “Relative level … (%)” value was 77.67 ± 9.10%.
“Ac-Gln-Glu-Met-Arg-Met-Gln-NHC6H13 (Ac-QEMRMQ-NHHex) [DD15004]” was tested, and the “Relative level … (%)” value was 89.03 ± 5.37%.
With “Myr-Glu-Glu-Met-Arg-Met-Gln-OH (Myristoyl-EEMRMQ-OH; SMILES CCCCCCCCCCCCCC(=O)N[C@@H](CCC(=O)O)C(=O)N[C@@H](CCC(=O)O)C(=O)N[C@@H](CCSC)C(=O)N[C@@H](CCCNC(=N)N)C(=O)N[C@@H](CCSC)C(=O)N[C@@H](CCC(N)=O)C(=O)O) [DD15011]” the “Relative level … (%)” value was 73.29 ± 4.37%.
For “Ac-Asn-Glu-Ile-Arg-Val-Gln-OH (Ac-NEIRVQ-OH) [DD15026]”, the “Relative level … (%)” value was 77.60 ± 5.43%.
With “Ac-Pro-Val-Gln-Glu-Met-Arg-Met-Gln-OH (Ac-PVQEMRMQ-OH) [DD15048]” the “Relative level … (%)” value was 89.54 ± 3.79%.
For “Ac-Gln-Glu-Met-Arg-Met-Gln-Tyr-OH (Ac-QEMRMQY-OH) [DD15046]”, the “Relative level … (%)” value was 74.02 ± 1.98%.
In the case of “Ac-Glu-Glu-Met-Arg-Met-Gln-OH (Ac-EEMRMQ-OH) [DD15051]”, the “Relative level … (%)” value is reported as 92.26 ± 1.61%.
In the case of “H-Gln-Asp-Met-Arg-Met-Asn-NH2 (H-QDMRMN-NH2) [DD15025]”, the “Relative level … (%)” value is reported as 86.95 ± 0.55%.
With “Ac-Gln-Glu-Met-Lys-Leu-Gln-OH (Ac-QEMKLQ-OH) [DD15024]” the “Relative level … (%)” value was 87.92 ± 1.32%.
“Ac-Gln-Asp-Met-Lys-Met-Asn-OH (Ac-QDMKMN-OH) [DD15027]” was tested, and the “Relative level … (%)” value was 78.47 ± 0.74%.
In the case of “H-Gln-Glu-Met-Arg-Leu-Gln-NH2 (H-QEMRLQ-NH2) [DD15055]”, the “Relative level … (%)” value is reported as 67.03 ± 0.23%.
“Myr-Gln-Glu-Met-Arg-Met-Gln-NH2 (Myristoyl-QEMRMQ-NH2) [DD15052]” was tested, and the “Relative level … (%)” value was 92.94 ± 1.35%.
With “H-Gln-Glu-Ile-Arg-Met-Gln-NH2 (H-QEIRMQ-NH2) [DD15016]” the “Relative level … (%)” value was 87.63 ± 4.46%.
